Assay results from publication PMC7615676, “Short-course combination treatment for experimental chronic Chagas disease” (Science translational medicine, 2023).
In brackets after ≈: the same amount, converted by molar mass. Like-named read-outs stand apart in the source and are kept apart here.

Tests used:
[1] = kinetic aqueous solubility (CLND); assay type: physicochemical; conditions: phosphate buffered saline, aqueous buffer, kinetic from dmso stock, pH 7.4
Protocol: The eluent is quantified by suitably calibrated flow injection CLND. This assay has a dynamic range between the lower detection limit of 1 and 500 μM, governed by the protocol’s 1:20 dilution into pH 7.4 phosphate buffer solution from nominal 10 mM DMSO stock.

[2] = tested on: intracellular T. cruzi amastigotes, strain Silvio X10/7 A1; experiment: intracellular T. cruzi amastigote potency assay; assay type: cell-based; conditions: Trypanosoma cruzi
Property Forecast Index = assay type: physicochemical; conditions: number of aromatic rings + ChromLogD at pH 7.4
[3] = tested on: chronic T. cruzi infection (CL Brener) in BALB/c mice; experiment: bioluminescent mouse model of chronic Chagas disease; assay type: in vivo, Trypanosoma cruzi; conditions: 5 days
HepG2 cells = experiment: general cytotoxicity assay in HepG2 cells; assay type: cell-based; conditions: Homo sapiens, HepG2, 48 h, CellTiter-Glo
Protocol: This assay was previously described ([36]). Briefly, actively growing HepG2 cells were removed from a T-175 TC flask using 5 ml Eagle’s MEM (containing 10 % FBS, 1 % NEAA, 1 % penicillin/ streptomycin. Carbon source is D-glucose at 1 g/l) and dispersed in the medium by repeated pipetting. Seeding density was checked to ensure that new monolayers were not more than 50 % confluent at the time of harvesting. Cell suspension was added to 500 ml of the same medium at a final density of 1.2 x 10^5 cells/ml. This cell suspension was dispensed (25 μl, 3000 cells per well) into 384-well clear-bottom plates using a Multidrop Combi dispenser. Prior to addition of the cell suspension, the screening compounds (250 nl) were predispensed into the plates with an EchoH liquid handler. Plates were incubated for 48 h at 37°C, 5% CO2. After incubation, plates equilibrated at room temperature for 30 min before proceeding to develop the luminescent signal. The signal developer, CellTiter-Glo Reagent, was allowed to equilibrate at room temperature for 30 min and added to the plates ([…]) using a Multidrop Combi dispenser. Plates were left for 10 min at room temperature for stabilization and then read using a ViewLux.

[4] = tested on: T. cruzi culture derived trypomastigotes, strain Silvio X10/7 A1; experiment: trypomastigote assay; assay type: cell-based; conditions: Trypanosoma cruzi
Protocol: Trypomastigote assays using strain Silvio X10/7 subclone A1 were carried out as described in ([19]). Parasite culture and potency determinations for panel of strains were performed as in ([19]). Strains used were M6241 clone 6 (DTU III), ERA clone 2 (DTU IV), PAH179 clone 5 (DTU V) and CL Brener-Luciferase (PpyRE9h-expressing T. cruzi, same strain that is used in animal model studies ([67])) (DTU VI). […] For Y strain compound exposure time was 3 days. Rate-of-kill assays were carried out as described in ([39]).

[5] = chromatographic LogD assay; assay type: physicochemical; conditions: reversed phase HPLC column (Gemini NX C18), pH 7.4; read-out: Chrom logD pH 7.4
Protocol: The chromatographic hydrophobicity index (CHI) values were measured using reversed phase HPLC column (50 mm × 2 mm, 3 μm Gemini NX C18, Phenomenex, U.K.) with fast acetonitrile gradient at starting mobile phase at pH 7.4. CHI values were derived directly from the gradient retention times by using a calibration line obtained for standard compounds. The CHI value approximates to the volume % organic concentration when the compound elutes. CHI was linearly transformed into ChromlogD by least-squares fitting of experimental CHI values to calculated log P (ClogP) values for over 20K research compounds using the following formula: ChromlogD = 0.0857CHI − 2.00. The average error of the assay is ±3 CHI units or ± 0.25 ChromlogD.

[6] = intrinsic clearance in mouse liver microsomes; assay type: in vitro ADME; conditions: for half-life at 0.5 μM: male, CD-1, read-out: T 1/2 mouse
Protocol: (§1) Immediately at time zero and at several serial times points up to 30 min, an aliquot of the incubation mixture was removed and mixed with acetonitrile to stop the reaction. Internal standard was added to all samples, the samples centrifuged to sediment precipitated protein and the plates then sealed prior to HPLC-MS/MS analysis. Metabolic stability expressed as a percentage of the parent molecule was calculated using the peak area ratio (compound peak area/internal standard peak area) of different compounds remaining after each incubation time compared to time zero of the incubation. The half-life (t1/2) was calculated using the following equation: t1/2=−ln(2)/k, where k is the turn-over rate constant of the ln (percent remaining) vs time regression.
(§2) CLint was calculated from the half-life (t1/2) using the following equations:
(§3) CLint (ml/min/g liver) = (0.693/(t1/2) x (ml of incubation/mg microsomal protein) x (mg microsomal protein/g liver).

T. cruzi CYP51 = T. cruzi CYP51 (Trypanosoma cruzi, UniProt Q7Z1V1); experiment: T. cruzi CYP51 biochemical assay
T. cruzi CYP51, sequence (Q7Z1V1 whole entry): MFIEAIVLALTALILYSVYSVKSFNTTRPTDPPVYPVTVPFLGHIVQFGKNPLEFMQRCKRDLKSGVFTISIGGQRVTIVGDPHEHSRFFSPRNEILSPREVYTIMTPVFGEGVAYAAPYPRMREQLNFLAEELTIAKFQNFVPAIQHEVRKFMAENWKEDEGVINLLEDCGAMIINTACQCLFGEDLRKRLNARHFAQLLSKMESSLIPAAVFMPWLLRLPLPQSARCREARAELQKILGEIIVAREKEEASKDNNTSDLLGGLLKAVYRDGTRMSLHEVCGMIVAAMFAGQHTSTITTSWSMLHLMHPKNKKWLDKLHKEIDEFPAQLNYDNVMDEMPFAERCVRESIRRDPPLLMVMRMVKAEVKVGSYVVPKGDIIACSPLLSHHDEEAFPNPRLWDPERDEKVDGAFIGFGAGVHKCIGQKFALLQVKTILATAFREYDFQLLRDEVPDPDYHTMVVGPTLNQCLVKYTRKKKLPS

Vero host cells = experiment: cytotoxicity against host cells in intracellular amastigote assay; assay type: cell-based; conditions: Chlorocebus sabaeus, Vero, host cell cytotoxicity
[7] = intrinsic clearance in human liver microsomes; assay type: in vitro ADME; conditions: for half-life at 0.5 μM: read-out: T 1/2 human
Protocol: as §1, §2, §3

[8] = tested on: intracellular T. cruzi Silvio X10/7 A1 in Vero cells; experiment: washout outgrowth assay; assay type: cell-based, Trypanosoma cruzi; conditions: for relapse day after the end of treatment: 50× EC50 for five days
Protocol: Washout outgrowth assay: Vero cells were infected overnight in T600 flasks at a multiplicity of infection (MOI) 5 with T. cruzi Silvio X10/7 A1 trypomastigotes, followed by washing of the Vero monolayer to remove free trypomastigotes. 24 hours later the monolayer was trypsinised, 5.3 x 10^6 Vero cells were plated in T75 tissue culture flasks (in 20 ml MEM-Glutamax (ThermoFisher), 1% Fetal Calf Serum (FCS)), and treatment was started. For ten-day treatments, medium with compounds was replaced after the initial 5 days. For 16 day treatments the compounds were replaced every four days. For compound washout, all medium was aspirated, and flasks were washed three times with 10 ml serum-free MEM medium followed by a final aspiration and addition of 20 ml MEM-Glutamax (ThermoFisher) supplemented with 1% FCS. The cultures were then maintained until trypomastigotes were detected by light microscopy. Medium was replaced twice weekly and prior to each medium replacement microscopic evaluation was carried out (five fields per flask) for up to 60 days post washout. Robustness of the data was confirmed by profiling multiple compounds from the pyrrolopyrimidine series in a single experiment (compounds 2,3 and 4 in Fig. 2 and Fig. S17) as well as comparing results from independent experiments (compound 2 in Fig. 2, Fig. S5 and Fig. S7).

[9] = intracellular amastigotes Silvio X10/7 A1, 96 h, ± SD, min. three experiments, read-out: Amastigotes pEC50 (converted)
[10] = read-out: HepG2 pEC50 (converted)
[11] = read-out: Trypomastigotes pEC50 (converted)
[12] = read-out: Vero pEC50 (converted)

Row | SMILES | solubility at 1 h [1] | EC50 [2, 9] | EC50 ([2]; read-out: Amastigotes EC50) | PFI (Property Forecast Index) | EC50 (HepG2 cells; read-out: HepG2 EC50) | EC50 (HepG2 cells; [10]) | EC50 ([4]; read-out: Trypomastigotes EC50) | EC50 [4, 11] | chromatographic logD [5] | Cl int mouse [6] | half-life at 0.5 μM [6] | IC50 (T. cruzi CYP51) | EC50 (Vero host cells; read-out: Vero EC50) | EC50 (Vero host cells; [12]) | Cl int human [7] | half-life at 0.5 μM [7] | relapse day after the end of treatment [8] | further results
1 | COc1ccc(-c2c(C)[nH]c3nc(N)nc(C)c23)c(OC)c1 [Compound 4, 5-(2,4-Dimethoxyphenyl)-4,6-dimethyl-7H-pyrrolo[2,3-d]pyrimidin-2-amine] | 137 µg/mL (≈ 459 µM) | 0.0794 µM | 0.08 µM | 6.1 | 79 µM | 79.4 µM | 0.05 µM | 0.0501 µM | 3.1 | 2.0 ml/min/g liver | 33 min | > 100 µM | > 50 µM | > 50.1 µM | 0.8 ml/min/g liver | 66 min | – | 95% confidence interval for no-relapse ([3]; Fig. 6, compound 4 50 mg/kg bid): 0.01 − 0.58
2 | COc1cc(F)ccc1-c1c(C)[nH]c2nc(N)nc(C)c12 [Compound 2, 5-(4-Fluoro-2-methoxyphenyl)-4,6-dimethyl-7H-pyrrolo[2,3-d]pyrimidin-2-amine] | 117 µg/mL (≈ 409 µM) | 0.0501 µM | 0.05 µM | 6.4 | 79 µM | 63.1 µM | 0.03 µM | 0.0316 µM | 3.4 | 1.3 ml/min/g liver | 52 min | > 100 µM | > 50 µM | > 50.1 µM | 0.6 ml/min/g liver | 96 min | 14 days | –
3 | COc1cc(Cl)ccc1-c1c(C)[nH]c2nc(N)nc(C)c12 [Compound 3, 5-(4-Chloro-2-methoxyphenyl)-4,6-dimethyl-7H-pyrrolo[2,3-d]pyrimidin-2-amine] | 103 µg/mL (≈ 340 µM) | 0.01 µM | 0.01 µM | 7.2 | 79 µM | 79.4 µM | 0.01 µM | 0.0126 µM | 4.2 | 1.4 ml/min/g liver | 48 min | > 100 µM | > 50 µM | > 50.1 µM | 0.4 ml/min/g liver | > 139 min | 14 days | 95% confidence interval for no-relapse ([3]; Fig. 3, compound 3 50 mg/kg bid): 0.19 − 0.81; animals relapsed ([3]; compound 3 monotherapy 50 mg/kg bid, oral): three out of six
4 | O=C(Cn1ccnc1[N+](=O)[O-])NCc1ccccc1 [Benznidazole, reference compound] | 77 µg/mL (≈ 296 µM) | 2 µM | 2 µM | 4.3 | > 100 µM | > 100 µM | 4 µM | 3.98 µM | 2.3 | – | – | – | > 50 µM | > 50.1 µM | – | – | 14 days | 95% confidence interval for no-relapse ([3]; Fig. 3, BNZ 30 mg/kg qd, Adjusted Wald): 0.01 − 0.58; 95% confidence interval for no-relapse ([3]; Fig. 6, BNZ 30 mg/kg qd): 0.06 − 0.8; relapse day after compound washout ([8]; ten-day treatment): no relapse
